One molecule from publication PMC5559406, “A human PET study of [^11C]HMS011, a potential radioligand for AMPA receptors” (EJNMMI Research, 2017) can be followed below.

pKd: −log10 of the molar value.

For this assay, the target named is T1, human AMPA receptors.
T1 construct: gene GRIA1; assay details only in supplement
As to the kind of experiment: radioligand receptor binding assay (details in supplement). To be noted: labelled compound; noncompetitive (perampanel derivative); subunit not told.

Consider `CNc1cccc(-n2cc(-c3ncccn3)cc(-c3ccccc3C#N)c2=O)c1` [[11C]HMS011, 2-(1-(3-([^11C]methylamino)phenyl)-2-oxo-5-(pyrimidin-2-yl)-1,2-dihydropyridin-3-yl) benzonitrile], for which the pKd was ~7.82.
